Results: US4169899A, “Penicillamine compounds” (Yoshitomi Pharmaceutical Industries, Ltd., priority 1977, dated 1979)
Like-named read-outs stand apart in the source and are kept apart here.

Assays:
peritoneal macrophages = experiment: Release (secretion) of lysosomal enzymes from macrophages during phagocytosis; format: cell-based; conditions: Rattus norvegicus, Peritoneal macrophage, 0.5 h, serum-treated zymosan, 37° C., 30 minutes
Description: (§1) (2) Assay of release of lysosomal enzymes from polymorphonuclear (PMN) leukocytes or macrophages during phagocytosis
Preparation of rat peritoneal macrophages was carried out according to the method described by D. Gemsa et al in "Journal of Clinical Investigation",vol. 52, 812 (1973).
(§2) Lysosomal enzymes were released from PMN leukocytes exposed to homologous serum-treated zymosan particles (0.5-3 μ in diameter, Sigma) according to the method described by M. Nakanishi et al in "Yakugaku Zasshi (Journal of the Pharmaceutical Society of Japan)", vol. 95, 672 (1975).
(§3) The effects of test compounds on the enzyme release were studied by determining the release of lysosomal marker enzymes such as aryl sulfatase.
(§4) The test compounds were dissolved in ethanol. The test solution (10 μl) or solvent (control, 10 μl) was added to a 10-ml conical flask containing 2.0 ml of the PMN leukocyte or macrophage suspension. The mixture was kept at 25° C. for 10 minutes. Immediately after the addition of 50 μl of serum-treated zymosan particles (10 mg/ml) to the above mixture, 1.0-ml aliquots were removed to determine the initial activity of free enzymes in the supernatant. The residual mixtures were incubated at 37° C. for 30 minutes with shaking at an agitation cycle of 75/min, and centrifuged at 350 g for 10 minutes at 4° C. The supernatant thus obtained was used for the measurement of the marker enzymes released from PMN leukocytes or macrophages during phagocytosis. The total activity of these enzymes was assayed using the 27,000 g supernatant obtained by centrifuging the PMN leukocytes or macrophages incubated at 37° C. for 30 minutes in 0.2% (v/v) Triton X-100 - Hanks' solution.

[1] = system: polymorphonuclear (PMN) leukocytes; experiment: Release (secretion) of lysosomal enzymes from PMN leukocytes during phagocytosis; format: cell-based; conditions: Rattus norvegicus, 0.5 h, serum-treated zymosan, 37° C., 30 minutes
Description: as §1
Preparation of rat PMN leukocytes was carried out according to the method described by M. Nakanishi et al in "Yakugaku Zasshi (Journal of the Pharmaceutical Society of Japan)", vol. 95, 1027 (1975).
as §2, §3, §4

[2] = system: Adjuvant induced arthritis; experiment: Adjuvant induced arthritis in the rat (prophylactic effect); format: in vivo, rat (male Wistar)
Description: (3) Adjuvant induced arthritis in the rat
The test was performed according to the method described by B. B. Newbould in "British Journal of Pharmacology", vol. 21, 127 (1963).
Male Wistar rats weighing 180 to 210 g were divided into groups of 8 animals each. The arthritic syndrome was induced by an intradermal injection into the right hind paw of 0.1 ml of a suspension of dead tubercle bacilli (6 mg/ml) in liquid paraffin. Swellings in the hind feet were measured with the fluid displacement method at 4, 10, 15, 18, 21 and 28 days after the adjuvant inoculation. Compounds tested were orally administered daily from the adjuvant inoculation day (day 1) to day 20.

Leukocyte migration = Leukocyte migration in the rat (CMC pouch); format: in vivo, rat (male Donryu); conditions: compound administered into the CMC pouch; for Leukocyte Migration ED50, 5 hr: 5 hr after CMC injection; for Leukocyte Migration ED50, 7 hr: 7 hr after CMC injection
Description: (1) Leukocyte migration in the rat
The test was performed according to the method described by H. Ishikawa et al in "Yakugaku Zasshi (Journal of the Pharmaceutical Society of Japan)", vol.
Male Donryu rats weighing about 150 g were divided into groups of 4 to 5 animals each. Five ml of 2% suspension of carboxymethylcellulose (CMC) in physiological saline, which was treated by autoclaving at 120° C. for 15 minutes, was injected subcutaneously in the supra-scapular area. Five and 7 hours later, 0.1 ml of fluid in the CMC pouch was collected and mixed with 3 ml of 0.02% brilliant cresyl blue solution in phosphate buffer (0.002M, pH 7.0). The suspension was put in a Burker chamber and the emigrating leukocytes were counted under a microscope (magnification 400x). The percent inhibition was calculated as compared with the count in the control group. Compounds tested were administered into the CMC pouch immediately after the injection of the CMC suspension.

[3] = read-out: Secretion of Lysosomal Enzyme IC20, Macrophage, Macrophage
[4] = Leukocyte, read-out: Secretion of Lysosomal Enzyme IC20, PMN leukocyte, PMN leukocyte
[5] = po, read-out: Prophylactic Effect on Adjuvant Arthritis MED (minimum effective dose)
[6] = Macrophage, read-out: Secretion of Lysosomal Enzyme IC20, Macrophage
[7] = PMN leukocyte, read-out: Secretion of Lysosomal Enzyme IC20, PMN leukocyte
[8] = oral, daily from day 1 to day 20, read-out: Prophylactic Effect on Adjuvant Arthritis MED (minimum effective dose)

Structure (SMILES)	IC20 (peritoneal macrophages; [3]) [µM]	IC20 [1, 4] [µM]	minimal effective dose [2, 5] [mg/kg]	Leukocyte Migration ED50, 5 hr (Leukocyte migration) [mg/rat]	Leukocyte Migration ED50, 7 hr (Leukocyte migration) [mg/rat]	IC20 (peritoneal macrophages; [6]) [µM]	IC20 [1, 7] [µM]	minimal effective dose [2, 8] [mg/kg]
CC(=O)Oc1ccccc1C(=O)O [AcetylsalicylicAcid, Acetylsalicylic Acid, reference compound]	100	0.1	100	20	> 25	–	–	–
CC(C)(S)[C@@H](N)C(=O)O [D-Penicillamine, D-penicillamine, reference compound]	1	10	> 200	> 40	> 40	–	–	–
CC1(C)SC(=S)N(Cc2ccccc2)C(=O)C1NC(=O)c1ccc(Cl)cc1 (stereo not shown) [Test Compound A, 3-benzyl-5-(p-chlorobenzamido)-6,6-dimethyl-2-thioxo-tetrahydro-2H-1,3-thiazin-4-one]	–	–	–	15	15	> 10	0.2	50
CN(C)CCN1C(=O)C(NC(=O)c2ccc(Cl)cc2)C(C)(C)SC1=S (stereo not shown) [Test Compound B, 5-(p-Chlorobenzamido)-3-(2-dimethylaminoethyl)-6,6-dimethyl-2-thioxotetrahydro-2H-1,3-thiazin-4-one]	–	–	–	2	2	0.2	0.5	25
CN(C)CCN1C(=O)C(NC(=O)c2ccc(Cl)cc2)C(C)(C)SC1=S.Cc1ccc(S(=O)(=O)O)cc1 (stereo not shown) [Test Compound C, 5-(p-Chlorobenzamido)-3-(2-dimethylaminoethyl)-6,6-dimethyl-2-thioxotetrahydro-2H-1,3-thiazin-4-one p-toluenesulfonate]	0.1	1	–	3.5	5	–	–	–
CN(C)CCN1C(=O)C(NC(=O)c2ccc(NS(C)(=O)=O)cc2)C(C)(C)SC1=S.Cc1ccc(S(=O)(=O)O)cc1 (stereo not shown) [Test Compound D, 3-(2-dimethylaminoethyl)-5-(p-methanesulfonamidobenzamido)-6,6-dimethyl-2-thioxo-tetrahydro-2H-1,3-thiazin-4-one p-toluenesulfonate]	0.5	0.3	10	2	5	–	–	–
CN(C)CCNC(=S)SC(C)(C)C(NC(=O)c1ccc(Cl)cc1)C(=O)O (stereo not drawn) [Test Compound E, n-(p-Chlorobenzoyl)-S-(2-dimethylaminoethylthiocarbamoyl)-penicillamine]	–	–	–	2.7	3.6	0.1	1	10
